According to PubChem BioAssay (NCI):
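Results reflect a 48-hour exposure of cells in 96-well plates to compound at five concentrations. The concentration for full growth arrest is given as TGI.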

Key:
Assay in all cases: growth of human tumour cells (NCI), 48 h
786-0 renal = tested on: 786-0 renal
A549 NSCLC = tested on: A549 NSCLC
ACHN renal = tested on: ACHN renal
BT-549 breast = tested on: BT-549 breast
CAKI-1 renal = tested on: CAKI-1 renal
CCRF-CEM leukemia = tested on: CCRF-CEM leukemia
COLO 205 colon = tested on: COLO 205 colon
DU-145 prostate = tested on: DU-145 prostate
EKVX NSCLC = tested on: EKVX NSCLC
HCT-116 colon = tested on: HCT-116 colon
HCT-15 colon = tested on: HCT-15 colon
HL-60(TB) leukemia = tested on: HL-60(TB) leukemia
HOP-62 NSCLC = tested on: HOP-62 NSCLC
HOP-92 NSCLC = tested on: HOP-92 NSCLC
HS 578T breast = tested on: HS 578T breast
HT29 colon = tested on: HT29 colon
IGROV1 ovarian = tested on: IGROV1 ovarian
K-562 leukemia = tested on: K-562 leukemia
KM12 colon = tested on: KM12 colon
LOX IMVI melanoma = tested on: LOX IMVI melanoma
M14 melanoma = tested on: M14 melanoma
MALME-3M melanoma = tested on: MALME-3M melanoma
MCF7 breast = tested on: MCF7 breast
MDA-MB-231 breast = tested on: MDA-MB-231 breast
MDA-MB-435 = tested on: MDA-MB-435
MDA-N = tested on: MDA-N
MOLT-4 leukemia = tested on: MOLT-4 leukemia
NCI-H226 lung = tested on: NCI-H226 lung
NCI-H23 lung = tested on: NCI-H23 lung
NCI-H460 lung = tested on: NCI-H460 lung
NCI-H522 lung = tested on: NCI-H522 lung
NCI/ADR-RES ovarian = tested on: NCI/ADR-RES ovarian
OVCAR-3 ovarian = tested on: OVCAR-3 ovarian
OVCAR-4 ovarian = tested on: OVCAR-4 ovarian
OVCAR-5 ovarian = tested on: OVCAR-5 ovarian
OVCAR-8 ovarian = tested on: OVCAR-8 ovarian
PC-3 prostate = tested on: PC-3 prostate
RPMI-8226 leukemia = tested on: RPMI-8226 leukemia
SF-268 CNS = tested on: SF-268 CNS
SF-295 CNS = tested on: SF-295 CNS
SF-539 CNS = tested on: SF-539 CNS
SK-MEL-2 melanoma = tested on: SK-MEL-2 melanoma
SK-MEL-28 melanoma = tested on: SK-MEL-28 melanoma
SK-OV-3 ovarian = tested on: SK-OV-3 ovarian
SN12C renal = tested on: SN12C renal
SNB-19 CNS = tested on: SNB-19 CNS
SNB-75 CNS = tested on: SNB-75 CNS
SR leukemia = tested on: SR leukemia
SW-620 colon = tested on: SW-620 colon
TK-10 renal = tested on: TK-10 renal
U251 CNS = tested on: U251 CNS
UACC-257 melanoma = tested on: UACC-257 melanoma
UACC-62 melanoma = tested on: UACC-62 melanoma
UO-31 renal = tested on: UO-31 renal
A498 renal = tested on: A498 renal
RXF 393 renal = tested on: RXF 393 renal

Measured: TGI

O=C1/C(=C/c2cccc(Br)c2)Cc2ccccc21
89.7 µM: COLO 205 colon
not listed: A498 renal | RXF 393 renal
> 100 µM: all other assays above

COc1ccc(NC(=O)N(C)CC2(O)CCC(C(C)(C)C)CC2)cc1 (centres undefined)
99.3 µM: MALME-3M melanoma
92.9 µM: RXF 393 renal
74.7 µM: LOX IMVI melanoma
81.4 µM: OVCAR-3 ovarian
91.7 µM: SF-295 CNS
72.5 µM: RPMI-8226 leukemia
97.3 µM: UACC-62 melanoma
10.3 µM: CAKI-1 renal
90.4 µM: HOP-92 NSCLC
not listed: NCI-H226 lung
> 100 µM: all other assays above
